The target of one data set is T1, mGluR5 (Rattus norvegicus, UniProt P31424).
T1 construct: tissue Charles River Laboratories; host or cells: rat brain cortex membranes (Sprague-Dawley)
T1 sequence (P31424 21-1203): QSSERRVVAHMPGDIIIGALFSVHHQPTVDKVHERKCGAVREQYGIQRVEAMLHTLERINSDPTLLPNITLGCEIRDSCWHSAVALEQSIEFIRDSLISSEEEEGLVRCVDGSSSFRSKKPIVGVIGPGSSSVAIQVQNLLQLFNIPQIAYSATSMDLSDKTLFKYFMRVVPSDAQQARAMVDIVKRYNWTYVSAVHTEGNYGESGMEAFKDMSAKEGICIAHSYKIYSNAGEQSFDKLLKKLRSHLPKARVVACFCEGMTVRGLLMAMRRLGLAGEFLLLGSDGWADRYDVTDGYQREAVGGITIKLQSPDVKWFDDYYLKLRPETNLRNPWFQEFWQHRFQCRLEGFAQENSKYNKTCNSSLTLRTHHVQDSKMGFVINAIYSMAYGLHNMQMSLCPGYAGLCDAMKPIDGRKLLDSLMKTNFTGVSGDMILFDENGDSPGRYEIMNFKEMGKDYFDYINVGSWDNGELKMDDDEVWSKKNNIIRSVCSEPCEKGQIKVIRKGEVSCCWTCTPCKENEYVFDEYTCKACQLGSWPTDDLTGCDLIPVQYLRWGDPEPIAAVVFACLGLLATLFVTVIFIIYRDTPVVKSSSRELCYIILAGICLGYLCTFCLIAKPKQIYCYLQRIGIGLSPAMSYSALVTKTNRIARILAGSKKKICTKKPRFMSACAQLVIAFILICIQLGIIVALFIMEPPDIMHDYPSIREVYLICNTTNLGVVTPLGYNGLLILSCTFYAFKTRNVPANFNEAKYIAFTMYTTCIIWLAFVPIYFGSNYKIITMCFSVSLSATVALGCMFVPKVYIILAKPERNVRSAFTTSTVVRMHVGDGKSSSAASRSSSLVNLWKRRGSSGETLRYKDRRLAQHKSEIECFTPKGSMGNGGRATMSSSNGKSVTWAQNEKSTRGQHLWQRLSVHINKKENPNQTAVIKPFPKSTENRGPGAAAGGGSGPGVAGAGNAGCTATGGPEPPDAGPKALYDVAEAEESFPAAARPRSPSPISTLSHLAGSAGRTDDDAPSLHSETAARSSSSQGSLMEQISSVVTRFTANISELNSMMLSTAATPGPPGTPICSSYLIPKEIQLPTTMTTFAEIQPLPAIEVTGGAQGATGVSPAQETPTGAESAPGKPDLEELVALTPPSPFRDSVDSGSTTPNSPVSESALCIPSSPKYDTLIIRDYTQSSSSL
The data set is described as follows: mGluR5 binding assay ([3H]-MPEP radioligand competition). Conditions: competition with 3 nM [3H]-MPEP, rat brain cortical membranes, 1 h at 4 °C; mean of at least three independent experiments in duplicate. Summed up:
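Rat cortical membranes (50 μg) were incubated 1 h at 4 °C with 3 nM [3H]-MPEP and compound (0.003 nM-30 μM, 8 points) in HEPES buffer pH 7.4 with Mg2+, Ca2+ and NaCl. 30 μM MPEP defined non-specific binding, and bound label was counted after filtration. IC50 came from non-linear regression, as the mean of ≥3 experiments run in duplicate.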
For orientation: Loss of bound radioactivity is the signal in a displacement assay; it reports binding, not function.
A word on the IC50: it is the concentration at which inhibition is half-maximal. Low readings indicate inhibition by little substance, high ones a need for much substance. On to `O=[N+]([O-])c1cccc2nn(CCC#Cc3cccc(CF)n3)nc12` [Example 161, 2-(4-(6-(Fluoromethyl)pyridin-2-yl)but-3-ynyl)-4-nitro-2H-benzo[d][1,2,3]triazole], for which the half-inhibitory concentration (IC50) was less than 10 µM.

In turn, `Cc1cccc2nn(CCC#Cc3ccccn3)nc12` [Example 163, 4-Methyl-2-(4-(pyridin-2-yl)but-3-ynyl)-2H-benzo[d][1,2,3]triazole] yielded an IC50 of less than 0.05 µM.

In the case of `Cc1cccc2nn(CCC#Cc3cccc(CF)n3)nc12` [Example 164, 2-(4-(6-(Fluoromethyl)pyridin-2-yl)but-3-ynyl)-4-methyl-2H-benzo[d][1,2,3]triazole], the 50% inhibitory concentration (IC50) is less than 0.05 µM.

In turn, `Cc1ccc2nn(CCC#Cc3cccc(CF)n3)nc2c1` [Example 165, 2-(4-(6-(Fluoromethyl)pyridin-2-yl)but-3-ynyl)-5-methyl-2H-benzo[d][1,2,3]triazole] had an IC50 of less than 0.05 µM.

The compound `Cc1ccc2nn(CCC#Cc3ccccn3)nc2c1` [Example 166, 5-Methyl-2-(4-(pyridin-2-yl)but-3-ynyl)-2H-benzo[d][1,2,3]triazole] registered an IC50 of less than 0.5 µM.

On to `Fc1ccc(-c2ccnn2CCC#Cc2ccccn2)cc1` [Example 171, 2-(4-(5-(4-Fluorophenyl)-1H-pyrazol-1-yl)but-1-ynyl)pyridine], for which the IC50 is less than 10 µM.

`FC(CC#Cc1ccccn1)c1cnc2ccccc2n1` (centres unmarked) [Example 172, 2-(1-Fluoro-4-(pyridin-2-yl)but-3-ynyl)quinoxaline]: the IC50 was less than 10 µM.

As to `O=CNc1cccc(C#CCCn2nc3ccccc3n2)n1` [Example 175, N-(6-(4-(2H-Benzo[d][1,2,3]triazol-2-yl)but-1-ynyl)pyridin-2-yl)formamide], the IC50 was less than 10 µM.

As for `Cc1nc(C#CCCn2nc3cccc(Cl)c3n2)cn1C` [Example 176, 4-Chloro-2-(4-(1,2-dimethyl-1H-imidazol-4-yl)but-3-ynyl)-2H-benzo[d][1,2,3]triazole], the IC50 was less than 10 µM.

`Cc1ccc2nn(CCC#Cc3ccccn3)nc2c1C` [Example 177, 4,5-Dimethyl-2-(4-(pyridin-2-yl)but-3-ynyl)-2H-benzo[d][1,2,3]triazole] displayed an IC50 of less than 10 µM.

`Cc1ccc2nn(CCC#Cc3cccc(CF)n3)nc2c1C` [Example 178, 2-(4-(6-(Fluoromethyl)pyridin-2-yl)but-3-ynyl)-4,5-dimethyl-2H-benzo[d][1,2,3]triazole] gave a concentration for half-maximal inhibition (IC50) of less than 10 µM.

`Clc1cccc(C#CCCn2nc3ccccc3n2)n1` [Example 180, 2-(4-(6-Chloropyridin-2-yl)but-3-ynyl)-2H-benzo[d][1,2,3]triazole] registered an IC50 of less than 10 µM.

`Cc1nc2ccccc2nc1CCC#Cc1cccc(CF)n1` [Example 181, 2-(4-(6-(Fluoromethyl)pyridin-2-yl)but-3-ynyl)-3-methylquinoxaline] registered an IC50 of less than 10 µM.

The compound `CC(F)c1cccc(C#CCCn2nc3ccccc3n2)n1` (centres unmarked) [Example 182, 2-(4-(6-(1-Fluoroethyl)pyridin-2-yl)but-3-ynyl)-2H-benzo[d][1,2,3]triazole] showed an IC50 of less than 10 µM.

`O=C(NCCC#Cc1cccc(CF)n1)c1c(Cl)cccc1Cl` [Example 189, 2,6-Dichloro-N-(4-(6-(fluoromethyl)pyridin-2-yl)but-3-ynyl)benzamide] registered an IC50 of less than 10 µM.

Regarding `Cn1c(CCC#Cc2cccc(CF)n2)nc2cccc(Cl)c21` [Example 191, 7-Chloro-2-(4-(6-(fluoromethyl)pyridin-2-yl)but-3-ynyl)-1-methyl-1H-benzo[d]imidazole], the IC50 is less than 10 µM.

Compound `Cn1c(CCC#Cc2ccccn2)nc2cccc(Cl)c21` [Example 192, 7-Chloro-1-methyl-2-(4-(pyridin-2-yl)but-3-ynyl)-1H-benzo[d]imidazole] yielded a 50% inhibitory concentration (IC50) of less than 0.5 µM.

Consider `CC(C)n1c(CCC#Cc2ccccn2)nc2ccccc21` [Example 194, 1-Isopropyl-2-(4-(pyridin-2-yl)but-3-ynyl)-1H-benzo[d]imidazole], for which the 50% inhibitory concentration (IC50) was less than 10 µM.

For `Cn1c(CCC#Cc2ccccn2)nc2cc(F)ccc21` [Example 197, 5-Fluoro-1-methyl-2-(4-(pyridin-2-yl)but-3-ynyl)-1H-benzo[d]imidazole], the 50% inhibitory concentration (IC50) was less than 10 µM.

For the compound `O=c1ccccn1CCC#Cc1ccccn1` [Example 198, 1-(4-(Pyridin-2-yl)but-3-ynyl)pyridin-2(1H)-one], the half-inhibitory concentration (IC50) is less than 10 µM.

For `CN(CCC#Cc1ccccn1)C(=O)c1cccc(F)c1` [Example 200, 3-Fluoro-N-methyl-N-(4-(pyridin-2-yl)but-3-ynyl)benzamide], the concentration for half-maximal inhibition (IC50) was less than 10 µM.

The compound `CN(CCC#Cc1ccccn1)C(=O)c1ccccc1C(F)(F)F` [Example 202, N-Methyl-N-(4-(pyridin-2-yl)but-3-ynyl)-2-(trifluoromethyl)benzamide] had an IC50 of less than 10 µM.

In the case of `CN(CCC#Cc1ccccn1)C(=O)c1ccccc1Cl` [Example 204, 2-Chloro-N-methyl-N-(4-(pyridin-2-yl)but-3-ynyl)benzamide], the IC50 is less than 10 µM.

Regarding `CN(CCC#Cc1ccccn1)C(=O)c1cccc(Cl)c1` [Example 205, 3-Chloro-N-methyl-N-(4-(pyridin-2-yl)but-3-ynyl)benzamide], the IC50 is less than 10 µM.

For the compound `CN(CCC#Cc1ccccn1)S(=O)(=O)c1ccc(F)cc1` [Example 206, 4-Fluoro-N-methyl-N-(4-(pyridin-2-yl)but-3-ynyl)benzenesulfonamide], the half-inhibitory concentration (IC50) is less than 10 µM.

`CN(CCC#Cc1ccccn1)S(=O)(=O)c1ccccc1Cl` [Example 207, 2-Chloro-N-methyl-N-(4-(pyridin-2-yl)but-3-ynyl)benzenesulfonamide] showed an IC50 of less than 10 µM.

Regarding `CN(CCC#Cc1cccc(CF)n1)C(=O)c1ccccc1Cl` [Example 208, 2-Chloro-N-(4-(6-(fluoromethyl)pyridin-2-yl)but-3-ynyl)-N-methylbenzamide], the half-maximal inhibitory concentration (IC50) was less than 0.5 µM.

As to `CN(CCC#Cc1cccc(CF)n1)S(=O)(=O)c1ccccc1Cl` [Example 209, 2-Chloro-N-(4-(6-(fluoromethyl)pyridin-2-yl)but-3-ynyl)-N-methylbenzene sulfonamide], the concentration for half-maximal inhibition (IC50) was less than 0.05 µM.

Take `CN(CCC#Cc1ccccn1)C(=O)c1ccccc1` [Example 211, N-Methyl-N-(4-(pyridin-2-yl)but-3-ynyl)benzamide]: the IC50 is less than 10 µM.

As for `Cc1ccccc1C(=O)N(C)CCC#Cc1ccccn1` [Example 212, N,2-Dimethyl-N-(4-(pyridin-2-yl)but-3-ynyl)benzamide], the IC50 was less than 10 µM.

In turn, `CN(CCC#Cc1ccccn1)C(=O)c1ccccc1F` [Example 213, 2-Fluoro-N-methyl-N-(4-(pyridin-2-yl)but-3-ynyl)benzamide] came in with a 50% inhibitory concentration (IC50) of less than 10 µM.

Compound `Cc1cccc(C(=O)N(C)CCC#Cc2ccccn2)c1` [Example 215, N,3-Dimethyl-N-(4-(pyridin-2-yl)but-3-ynyl)benzamide] yielded an IC50 of less than 10 µM.

As to `COc1ccccc1C(=O)N(C)CCC#Cc1ccccn1` [Example 216, 2-Methoxy-N-methyl-N-(4-(pyridin-2-yl)but-3-ynyl)benzamide], the 50% inhibitory concentration (IC50) is less than 10 µM.

On to `CN(CCC#Cc1ccccn1)C(=O)c1cccc(F)c1F` [Example 217, 2,3-Difluoro-N-methyl-N-(4-(pyridin-2-yl)but-3-ynyl)benzamide], for which the IC50 was less than 10 µM.

With `CN(CCC#Cc1ccccn1)C(=O)c1c(Cl)cccc1Cl` [Example 218, 2,6-Dichloro-N-methyl-N-(4-(pyridin-2-yl)but-3-ynyl)benzamide], the IC50 was less than 0.5 µM.

Regarding `Cc1noc(C)c1S(=O)(=O)N(C)CCC#Cc1ccccn1` [Example 219, N,3,5-Trimethyl-N-(4-(pyridin-2-yl)but-3-ynyl)isoxazole-4-sulfonamide], the IC50 is less than 10 µM.

On to `C(#Cc1ccccn1)CCNc1nc2ccccc2s1` [Example 220, N-(4-(Pyridin-2-yl)but-3-ynyl)benzo[d]thiazol-2-amine], for which the IC50 is less than 10 µM.

As for `Cn1c(=O)n(CCCC#Cc2ccccn2)c2ccccc21` [Example 221, 1-Methyl-3-(5-(pyridin-2-yl)pent-4-ynyl)-1H-benzo[d]imidazol-2(3H)-one], the IC50 is less than 10 µM.

Take `FCc1cccc(C#CCCc2cn3cccc(Br)c3n2)n1` [Example 225, 8-Bromo-2-(4-(6-(fluoromethyl)pyridin-2-yl)but-3-ynyl)-imidazo[1,2-a]pyridine]: the IC50 is less than 0.05 µM.

Regarding `FCc1cccc(C#CCCc2cn3cccc(-c4ccccc4)c3n2)n1` [Example 227, 2-(4-(6-(Fluoromethyl)pyridin-2-yl)but-3-ynyl)-8-phenyl-imidazo[1,2-a]pyridine], the IC50 is less than 10 µM.

Regarding `O=C(OCCC#Cc1ccccn1)c1ccccc1Cl` [Example 235, 4-(Pyridin-2-yl)but-3-ynyl 2-chlorobenzoate], the IC50 is less than 0.05 µM.

Regarding `O=C(OCCC#Cc1ccccn1)c1cccc(Cl)c1` [Example 236, 4-(Pyridin-2-yl)but-3-ynyl 3-chlorobenzoate], the IC50 is less than 0.05 µM.

Compound `O=c1c2ccccc2cnn1CCCCC#Cc1ccccn1` [Example 243, 2-(6-(Pyridin-2-yl)hex-5-ynyl)phthalazin-1(2H)-one] returned a 50% inhibitory concentration (IC50) of less than 10 µM.

With `O=C(NCCC#Cc1cccc(CF)n1)c1ccccc1Cl` [Example 247, 2-Chloro-N-(4-(6-(fluoromethyl)pyridin-2-yl)but-3-ynyl)benzamide], the half-inhibitory concentration (IC50) was less than 10 µM.

Test system in another data set: not given
Test: not given
Conditions: not given
As a reminder, the melting point is the temperature, or range, at which the solid turns liquid. Compound `Cc1nc(C#CCCc2ccccc2)c[nH]1` [Example 11, 2-Methyl-4-(4-phenylbut-1-ynyl)-1H-imidazole] registered a melting point of 124 to 126 °C.

In turn, `O=c1n(CCC#Cc2ccccn2)nc2ccccn12` [Example 39, 2-(4-(Pyridin-2-yl)but-3-ynyl)-[1,2,4]triazolo[4,3-a]pyridin-3(2H)-one] gave a melting point of 95.5 to 96 °C.

Consider `Cc1csc(C#CCCn2nc3ccccc3n2)n1` [Example 229, 2-(4-(4-Methylthiazol-2-yl)but-3-ynyl)-2H-benzo[d][1,2,3]triazole], for which the melting point lay in the range of 78 to 80 °C.

For the origin of these results see patent US8883826B2, “Alkynyl derivatives as modulators of metabotropic glutamate receptors” (Addex Pharma SA, priority 2004, dated 2014).
